How the values were obtained:
[1] = system: Leukemia cancer cell lines; assay: In vitro cytotoxicity, leukemia panel; format: cell-based; conditions: Homo sapiens, average of six to nine different cancer cell lines, 48 h, SRB, read-out: Log GI50 (concentration in mol/L causing 50% growth inhibition) (converted)
Protocol: (§1) In vitro evaluation of cytotoxic activity: Compounds were evaluated for in vitro anticancer activity against sixty human tumour cells derived from nine cancer types (colon, prostate, oral, lung, cervix and breast cancer) as shown in (Table 1, 2 and 3) 8b, 8c, 8d, and 8e, were evaluated for in vitro anticancer activity against sixty human tumour cells derived from nine cancer types (leukemia, non-small-cell lung, colon, CNS, melanoma, ovarian, prostate, and breast cancer) as shown in (Table 2 and 3). For the compound, dose response curves for each cell line were measured at a minimum of five concentrations at 10 fold dilutions. A protocol of 48 h continuous drug exposure was used and a sulforhodamine B (SRB) protein assay was used to estimate cell viability or growth. The concentration causing 50% cell growth inhibition (GI50), total cell growth inhibition (TGI 0% growth) and 50% cell death (LC50, −50% growth) compared with the control was calculated. The mean graph midpoint values of log10 TGI and log10 LC50 as well as log10 GI50 for 8a, 8b, 8c, 8d, and 8e, are listed in (Table 2 and 3).
(§2) Each cancer type represents the average of six to nine different cancer cell lines. The compounds 8a, 8b, 8c, 8d, 8e and 8f were evaluated for in vitro anticancer activity against sixty human tumour cells derived from nine cancer types (leukemia, colon, prostate, renal melanoma CNS, lung, cervix and breast cancer) as shown in Table 3. Compounds 8b, 8c, 8d and 8e show promising cytotoxicity against some cancer cell lines (Table 2). Compounds 8b, 8c, 8d and 8e have been evaluated for their in vitro cytotoxicity in selected human cancer cell lines of colon (Colo205), lung (Hop-62), cervix (SiHa), prostate (DU145, PC3), oral (DWD, HT1080), and breast (MCF7, Zr-75-1) origin. A protocol of 48 h continuous drug exposure has been used and an […] has been used to estimate cell viability or growth. The results are expressed as percent of cell growth determined relative to that of untreated control cells. […] In the breast cancer panel, the growth of BT-549, MCF-7 cell lines are 10.3, and 17.6. In the prostate cancer panel, the growth of DU-145, PC-3 cell lines are 11.3, and 19.2. The GI50 values of compound In the CNS cancer panel, the growth of SF-539, SNB-75 cell lines are […]. […] In vitro cytotoxicity of compounds 8a, and 8b in selected cancer cell lines has been illustrated in Table 3. The average GI50 values for each cancer panel of compounds 8b, 8c, 8d and 8e have been illustrated in above Table 2 and 3

[2] = system: BT-549 cell line (breast cancer); assay: In vitro cytotoxicity, BT-549; format: cell-based; conditions: Homo sapiens; BT-549, breast cancer panel; unit inferred; read-out: growth (GI50)
Protocol: (§3) In vitro evaluation of cytotoxic activity: Compounds were evaluated for in vitro anticancer activity against sixty human tumour cells derived from nine cancer types (colon, prostate, oral, lung, cervix and breast cancer) as shown in (Table 1, 2 and 3) 8b, 8c, 8d, and 8e, were evaluated for in vitro anticancer activity against sixty human tumour cells derived from nine cancer types (leukemia, non-small-cell lung, colon, CNS, melanoma, ovarian, prostate, and breast cancer) as shown in (Table 2 and 3). For the compound, dose response curves for each cell line were measured at a minimum of five concentrations at 10 fold dilutions. […]
(§4) Each cancer type represents the average of six to nine different cancer cell lines. The compounds 8a, 8b, 8c, 8d, 8e and 8f were evaluated for in vitro anticancer activity against sixty human tumour cells derived from nine cancer types (leukemia, colon, prostate, renal melanoma CNS, lung, cervix and breast cancer) as shown in Table 3. […] Compounds 8b, 8c, 8d and 8e have been evaluated for their in vitro cytotoxicity in selected human cancer cell lines of colon (Colo205), lung (Hop-62), cervix (SiHa), prostate (DU145, PC3), oral (DWD, HT1080), and breast (MCF7, Zr-75-1) origin. […] The results are expressed as percent of cell growth determined relative to that of untreated control cells. […]

[3] = system: EKVX cell line (non-small cell lung cancer); assay: In vitro cytotoxicity, EKVX; format: cell-based; conditions: Homo sapiens, non-small cell lung cancer panel
Protocol: as §3, §4

[4] = system: Ovarian cancer cell lines; assay: In vitro cytotoxicity, ovarian panel; format: cell-based; conditions: Homo sapiens, average of six to nine different cancer cell lines, 48 h, SRB, read-out: Log GI50 (concentration in mol/L causing 50% growth inhibition) (converted)
Protocol: as §1, §2

[5] = system: DU-145 cell line (prostate cancer); assay: In vitro cytotoxicity, DU-145; format: cell-based; conditions: Homo sapiens; DU-145, prostate cancer panel; unit inferred; read-out: growth (GI50)
Protocol: as §3, §4

[6] = system: Colon cancer cell lines; assay: In vitro cytotoxicity, colon panel; format: cell-based; conditions: Homo sapiens, average of six to nine different cancer cell lines, 48 h, SRB, read-out: Log GI50 (concentration in mol/L causing 50% growth inhibition) (converted)
Protocol: as §1, §2

[7] = system: PC-3 cell line (prostate cancer); assay: In vitro cytotoxicity, PC-3; format: cell-based; conditions: Homo sapiens; PC-3, prostate cancer panel; unit inferred; read-out: growth (GI50)
Protocol: as §3, §4

[8] = system: Renal cancer cell lines; assay: In vitro cytotoxicity, renal panel; format: cell-based; conditions: Homo sapiens, average of six to nine different cancer cell lines, 48 h, SRB, read-out: Log GI50 (concentration in mol/L causing 50% growth inhibition) (converted)
Protocol: as §1, §2

[9] = system: Breast cancer cell lines; assay: In vitro cytotoxicity, breast panel; format: cell-based; conditions: Homo sapiens, average of six to nine different cancer cell lines, 48 h, SRB, read-out: Log GI50 (concentration in mol/L causing 50% growth inhibition) (converted)
Protocol: as §1, §2

[10] = system: Melanoma cancer cell lines; assay: In vitro cytotoxicity, melanoma panel; format: cell-based; conditions: Homo sapiens, average of six to nine different cancer cell lines, 48 h, SRB, read-out: Log GI50 (concentration in mol/L causing 50% growth inhibition) (converted)
Protocol: as §1, §2

[11] = system: Nonsmall-cell-lung cancer cell lines; assay: In vitro cytotoxicity, non-small-cell lung panel; format: cell-based; conditions: Homo sapiens, average of six to nine different cancer cell lines, 48 h, SRB, read-out: Log GI50 (concentration in mol/L causing 50% growth inhibition) (converted)
Protocol: as §1, §2

[12] = system: MCF-7 cell line (breast cancer); assay: In vitro cytotoxicity, MCF-7; format: cell-based; conditions: Homo sapiens, MCF7; MCF-7, breast cancer panel; unit inferred; read-out: growth (GI50)
Protocol: as §3, §4

[13] = system: NCI-H226 cell line (non-small cell lung cancer); assay: In vitro cytotoxicity, NCI-H226; format: cell-based; conditions: Homo sapiens; NCI-H226, non-small cell lung cancer panel
Protocol: as §3, §4

[14] = system: CNS cancer cell lines; assay: In vitro cytotoxicity, CNS panel; format: cell-based; conditions: Homo sapiens, average of six to nine different cancer cell lines, 48 h, SRB, read-out: Log GI50 (concentration in mol/L causing 50% growth inhibition) (converted)
Protocol: as §1, §2

[15] = system: calf thymus (CT) DNA; assay: Thermal denaturation studies with duplex-form calf thymus DNA; format: binding
Protocol: Compounds were subjected to thermal denaturation studies with duplex-form calf thymus DNA (CT-DNA) using an adaptation of a reported procedure. Working solutions in aqueous buffer (10 mM NaH2PO4/Na2HPO4, 1 mM Na2EDTA, pH 7.00+/−0.01) containing CT-DNA (100 μM in phosphate) and the PBD (20 μM) were prepared by addition of concentrated ANCD solutions in DMSO to obtain a fixed [ANCD]/[DNA] molar ratio of 1:5. The DNA-ANCD solutions were incubated at 37° C. for 0, 18, and 36 h prior to analysis. Samples were monitored at 260 nm using a Beckman DU-7400 spectrophotometer fitted with high performance temperature controller, and heating was applied at 1° C. min^−1 in the 40-90° C. range. DNA helix coil transition temperatures (Tm) were obtained from the maxima in the (dA260)/dT derivative plots. Results are given as the mean+/−standard deviation from three determinations and are corrected for the effects of DMSO co-solvent using a linear correction term. Drug-induced alterations in DNA melting behaviour are given by: ΔTm=Tm (DNA+ANCD)−Tm (DNA alone), where the Tm value for the ANCD-free CT-DNA is 69.0+/−0.01.

[16] = system: Prostate cancer cell lines; assay: In vitro cytotoxicity, prostate panel; format: cell-based; conditions: Homo sapiens, average of six to nine different cancer cell lines, 48 h, SRB, read-out: Log GI50 (concentration in mol/L causing 50% growth inhibition) (converted)
Protocol: as §1, §2

[17] = system: human tumour cell lines; assay: In vitro anticancer activity against sixty human tumour cell lines (NCI, SRB assay); format: cell-based
Protocol: as §1, §2

[18] = system: HL-60 (TB) (leukemia); assay: In vitro cytotoxicity, HL-60 (TB); format: cell-based; conditions: Homo sapiens, leukemia panel
Protocol: as §3, §4

## COc1cc(C(=O)N2CCN(c3ccccn3)CC2)c(N)cc1OCc1ccccc1 [Compound 8b, [2-amino-4-(benzyloxy)-5-methoxyphenyl][4-(2-pyridyl)piperazino]methanone]
[1]
  GI50: 5.5 µM
[2]
  GI50: 10.3 µM
[3]
  GI50: 12.4 µM
[4]
  GI50: 5.75 µM
[5]
  GI50: 11.3 µM
[6]
  GI50: 6.76 µM
[7]
  GI50: 19.2 µM
[8]
  GI50: 5.62 µM
[9]
  GI50: 6.76 µM
[10]
  GI50: 1.78 µM
[11]
  GI50: 4.57 µM
[12]
  GI50: 17.6 µM
[13]
  GI50: 13.6 µM
[14]
  GI50: 5.89 µM
[15]; [ANCD]/[DNA] molar ratio 1:5, CT-DNA 100 μM, ligand 20 μM, sodium phosphate buffer pH 7.00, 0 h at 37° C.
  ΔTm (° C.) after incubation at 37° C. for 0 h: 1.5 °C
[15]; [ANCD]/[DNA] molar ratio 1:5, CT-DNA 100 μM, ligand 20 μM, sodium phosphate buffer pH 7.00, 18 h at 37° C.
  ΔTm (° C.) after incubation at 37° C. for 18 h: 2.1 °C
[15]; [ANCD]/[DNA] molar ratio 1:5, CT-DNA 100 μM, ligand 20 μM, sodium phosphate buffer pH 7.00, 36 h at 37° C.
  ΔTm (° C.) after incubation at 37° C. for 36 h: 2.6 °C
[15]; incubation at 37° C., [ANCD]/[DNA] 1:5
  Course of ΔTm over incubation at 0 hr, 18 hr and 36 hr: gradually increased
[16]
  GI50: 16.6 µM
[17]; 50% cell death, 48 h continuous drug exposure, SRB assay
  Log10LC50 mean graph midpoint (MG_MID): −4.05
[17]; 50% cell growth inhibition, 48 h continuous drug exposure, SRB assay
  Log10GI50 mean graph midpoint (MG_MID): −5.62
[17]; Homo sapiens, fifty-five cell lines in nine cancer cell panels
  GI50: < 10 µM
[17]; against most of the tested cell lines
  antiproliferative activity: nanomolar to low micromolar concentrations
[17]; total cell growth inhibition, 48 h continuous drug exposure, SRB assay
  Log10TGI50 mean graph midpoint (MG_MID): −5.12
[18]
  GI50: 16.5 µM

Reference: patent US8309726B2, “Substituted piperazine compounds of formula 8” (Council of Scientific & Industrial Research, priority 2007, dated 2012)
